Results taken from patent US11241501B2, “Anticancer prodrug for overcoming drug resistance” (Korea University Research and Business Foundation, priority 2018, dated 2022).

Experiments:
MCF7 and MCF7/Dox tumors = test: In vivo and ex vivo fluorescent imaging; conditions: mice bearing MCF7 and MCF7/Dox tumors
Description: To assess tumor target specificity and the organ distribution of C1 in vivo and ex vivo, MCF7 and MCF7/Dox cells were injected subcutaneously into mice. When tumor growth reached a detectable size, the mice were treated with C1 (15 mg/kg/d), doxorubicin (2 mg/Kg/d)+DCA (50 mg/Kg/d), or vehicle (DMSO) by i.v. injection once every 4 days for 30 days. After 15 days of treatment, the animals were euthanized via CO2 asphyxiation. The xenograft tumors were excised and photographed. In vivo fluorescence images of the mice were recorded and quantified using a Maestro2 instrument (excitation and emission wavelengths: 500 and 650 nm, respectively). The fluorescence images and auto-fluorescence were then deconvoluted using the software provided with the instrument (Maestro software ver.2.4, CRi, Woburn, Mass., USA) using the multiexcitation spectral analysis function.

MCF7 and MCF7/Dox cells = test: Intracellular accumulation, fluorescence assay; format: cell-based, human; conditions: up to 12 hr after treatment
Description: (§1) Fluorescence intensities were measured with SpectraMAX 13. Data represent means±SD. **p<0.01. […] Data represent means±SD. **[…]. […] Data represent the mean±SD (n=3 experimental replicates). *p<0.05, **p<0.01. […] MCF7/Dox cells were treated with C1 or C3 as indicated, and the cytosolic (C) and mitochondrial (M) fractions were subjected to immunoblot assay. COX-IV and tubulin were used as markers for the mitochondria and cytosol fractions, respectively.
Mito-tracker (green) was utilized to show the mitochondria;
To analyze the cellular fluorescence levels upon compound treatment, cells were seeded in plates 1 day before treatment with the compounds. Cells were then treated with each compound for the indicated dose or time course. After the experiment, cells were washed with ice-cold PBS, trypsinized, and centrifuged. The cell pellet was re-suspended in 300 μL of PBS and then analyzed using a multiplate reader (SpectraMAX I3x). The results were normalized according to the number of cells.

[1] = Stability on incubation in PBS; format: physicochemical; conditions: PBS pH 7.4, 37° C., 24 hr
Description: To gain further insight into the preliminary stability and activation of conjugates containing DCA, Dox, and a TPP cation targeting entity, both the target conjugate C1 and the control system C3 (an analog of C1 lacking the chloromethyl groups present in DCA; cf. FIG. 1) were prepared. These two conjugates were obtained in excellent yield, as shown in Scheme S1. […] This release was accompanied by a strong emission band at 560 nm corresponding to free Dox (FIG. 2A and FIG. 2B). Further support for the release of free Dox under these conditions came from time-dependent fluorescence experiments, HPLC, and liquid chromatography-mass spectrometry (FIG. 2B and FIG. 2C, and FIG. 7). […] To test the reaction of C1 with various other bioanalytes, the fluorescence response in the presence of various amino acids, enzymes, and biomolecules was recorded.

[2] = Cell fractionation assay, mitochondria-to-nucleus trafficking; format: cell-based; conditions: after treatment with C1
Description: as §1
Separation of cytosolic and mitochondrial fractions was performed using the Mitochondria Isolation Kit (Thermo Scientific, USA). Briefly, the cells were washed with cold PBS and lysed by 5-cycle freeze-thawing in Mitochondria Isolation Reagent A buffer, containing 10 mM phenylmethylsulfonyl fluoride (PMSF). After incubation on ice for 10 min and the addition of Mitochondria Isolation Reagent B buffer, the lysates were centrifuged at 700×g for 10 min following inverting by treating with Mitochondria Isolation Reagent C buffer. The supernatant was transferred to a new tube, centrifuged at 12 000×g for 15 min at 4° C., and collected as the cytosolic fraction. After adding […] of Mitochondria Isolation Reagent C, the pellet was centrifuged at 12 000×g for 5 min and collected as the mitochondrial fraction.

[3] = Hepatotoxicity assay, serum ALT and AST; format: in vivo; conditions: mice bearing MCF7/Dox tumors
Description: Tumors are shown (right). […] C1 injection led to a 58% reduction in tumor growth, which was statistically greater than the reductions seen in the case of C2 (16%), C3 (9%), C4 (6%) and DMSO (0%) tested under otherwise identical conditions.
Blood samples of each mice were centrifuged at 3,000 rpm for 10 min at 4° C. to produce serum. Then, the activities of ALT and AST in serum were analyzed using the AST and ALT Activity Assay Kits (MAK055, MAK052, Sigma) according to the manufacturer's instructions.

HepG2 cells = test: Confocal intracellular localization with MitoTracker; format: cell-based, human; conditions: HepG2, 5 μM, 24 hr
Description: (§2) HepG2 cells treated with each compound (5 μM, 24 hr) were co-stained with the mitochondrial marker MitoTracker (green). Boxed regions show co-localization of the test compounds and probe within the mitochondria. […] Experiments were carried out in triplicate and the data shown represent means±SD. **p<0.01. […] HepG2 cells were incubated with BNPP (100 μM) for 2 hr prior to C1 treatment. **p<0.01. […] Cleaved caspase-3 and PARP-1 levels were examined to assess apoptosis induction. C, cleaved.
Cells were seeded on glass chamber slides (Nalgene Nunc) followed by probe treatment. After 48 h, the cells were fixed with 4% formaldehyde, and blocked with 2% bovine serum albumin-PBS for 30 min. The mitochondria were stained using MitoTracker™ Green FM (Invitrogen, USA) for 30 min. Fluorescent images were obtained using a confocal laser scanning microscope (Carl Zeiss MicroImaging, Inc., Germany).

MCF7 cells = test: Colony formation assay; format: cell-based, human; conditions: 10 days
Description: Cells were seeded in 24 well plates at 2×10^5 cells per well and were allowed to adhere for at least 24 h, growth medium was replaced with medium containing C1 or its analogues at the indicated concentrations and times, and cell viability was assessed via the WST-1 assay (Roche Diagnostics, Laval, QC, Canada). For the colony formation assay, cells were seeded in 6-well plates. After 24 h, cells were maintained in the presence of each probe or vehicle dimethyl sulfoxide (DMSO) for 10 days. Colonies were fixed with methanol for 10 min and stained with 0.05% crystal violet in 20% ethanol.

[4] = test system: p21^Waf1 and phosphorylated PDH levels; test: Immunoblot assay of p21Waf1 and phosphorylated PDH; format: cell-based, human
Description: as §2
Immunoblot analyses were performed using antibodies specific for phosphorylated serine 293 PDH-EI (ab92696), p21^Waf1 (sc-397), cleaved PARP (5625), cleaved caspase-3 (9664), COX-IV (4850), and Cytochrome c (4280). They were purchased from Abcam (Cambridge, UK), Santa Cruz Biotechnology (Texas, USA) or Cell Signaling Technology (Massachusetts, USA). Anti-tubulin antibodies were obtained from Sigma-Aldrich (St. Louis, USA). Briefly, cells were washed twice in ice-cold PBS and lysed in a radioimmunoprecipitation assay buffer containing 50 mM Tris/HCl (pH 7.5), 150 mM NaCl, 0.1% sodium dodecyl sulfate (SDS), 1% Triton X-100, 1% sodium deoxycholate, and protease inhibitor mixture. After sonification, the lysate was centrifuged, and the supernatant was recovered and loaded onto a 12% SDS-polyacrylamide gel for electrophoresis.

## COc1cccc2c1C(=O)c1c(O)c3c(c(O)c1C2=O)C[C@@](O)(C(=O)CO)C[C@@H]3OC1C[C@H](NC(=O)OC(Cc2cn(CCCCCC[P+](c3ccccc3)(c3ccccc3)c3ccccc3)nn2)c2ccc(NC(=O)C(Cl)Cl)cc2)[C@H](O)[C@H](C)O1.[Br-] (some centres unmarked) [C1]
MCF7 and MCF7/Dox tumors
  tumor specificity of Dox accumulation (fluorescence imaging of mice and dissected organs): highly tumor-specific accumulation of Dox
MCF7 and MCF7/Dox cells
  intracellular accumulation in MCF7/Dox versus MCF7: comparable level in both MCF7 and MCF7/Dox cells
[1]
  decomposition upon incubation in PBS: no decomposition was observed
[2]
  time for released Dox to translocate to the nucleus: approximately 2 hr
[3]
  toxicity from ALT and AST levels in blood serum: no significant toxicity
HepG2 cells
  intracellular (mitochondrial) localization: located predominantly within the mitochondria
MCF7 cells
  colony-forming ability: strong inhibitory effect
[4]
  effect on p21^Waf1 and phosphorylated PDH levels: up- and downregulation of p21^Waf1 and phosphorylated PDH levels
